Source: US11160843B2, “Oxytocin and opioid antagonists for treatment of social dysfunction disorder” (YALE UNIVERSITY, priority 2018, dated 2021)

Tests used:
[1] = system: rhesus macaques (Macaca mulatta); assay: Live gaze interaction task (social attention to a conspecific); assay type: in vivo; details: for attention to the conspecific (looking at the eyes) following mutual eye contact, compared with SAL: 0.5-3 s after mutual eye contact, permutation test, OTNAL P<0.01, OT, NAL both P>0.05
Experimental: Nine adult rhesus macaques (Macaca mulatta) were selected for study. The animals (six males and three females) were all housed together in a colony in either pairs or triads. Each animal was kept on a 12-h light/dark cycle and had access to food 24 h each day with controlled access to water during testing. Before testing began, each monkey received a surgically implanted head post (Crist Instruments, Gray Matter Research) for restraining its head while tracking eye positions. At the time of surgery, anesthesia was induced with ketamine hydrochloride (10 mg/kg i.m.) and maintained with isoflurane (1.0-3.0%, to effect). Aseptic procedures were used, and heart rate, respiration rate, blood pressure, expired CO2, and body temperature were monitored throughout the procedure. Monkeys were allowed an additional 30-40 d of recovery after the implant surgery.
All of the tested subjects received pharmacological manipulations through a pediatric nebulizer (PARI Baby Nebulizer; PARI Respiratory Equipment) with a cone-shaped facemask. The facemask, designed for canine anesthesia, was fitted entirely over the muzzle area, and the subject breathed freely through the nose for the duration of the dose administration. Before experimental sessions, monkeys were first incrementally habituated to the facemask and then to the nebulizer until they were completely relaxed during the procedure, which typically took about 3-5 d. […]
Gaze calibration procedures for studying dyadic gaze interactions reported by Dal Monte, et al., 2016, J. Neurophysiol. […] For analysis purposes, the location was determined where the animal was looking on a theoretical screen located further from the actual screen on which the animal was calibrated. With trigonometric corrections, the ROIs were identified and matched based on individual measurements of each monkey's face to the dimension of fixations as measured from the calibration screen. […]
Two animals sat in front of each other with no task constraints while the eye positions of both animals were recorded simultaneously and continuously (FIG. 1A). […]

[2] = system: rhesus macaques (Macaca mulatta); assay: NAL dose-response curve, free-viewing task (fixation frequency to face images); assay type: in vivo; details: intranasal NAL 0.5, 1, 2 mg via nebulizer, P<0.001 for 1 mg over 2 mg and over 0.5 mg
Source text: All of the tested subjects received pharmacological manipulations through a pediatric nebulizer (PARI Baby Nebulizer; PARI Respiratory Equipment) with a cone-shaped facemask. The facemask, designed for canine anesthesia, was fitted entirely over the muzzle area, and the subject breathed freely through the nose for the duration of the dose administration. Before experimental sessions, monkeys were first incrementally habituated to the facemask and then to the nebulizer until they were completely relaxed during the procedure, which typically took about 3-5 d. This habituation procedure was performed with saline (SAL). During both the habituation phase and the testing phase, the animals' heads were restrained to minimize movement and enhance administration reliability. Each of the different pharmacology manipulations tested was diluted to a volume of 2 mL using sterile SAL and was administered over the course of 8-10 min. In addition, experimental sessions were conducted at the same time of day to control for diurnal fluctuations. […]
On the day of the experiment, monkeys were transported in a primate chair from the colony room to the experimental room. […] During the 15-s period, monkeys were free to explore, or not explore, each face presented while an infrared eye-tracking camera continuously recorded their eye positions (Eyelink; SR Research). […]

[3] = system: social partners; details: background statement; cited from earlier work

| Compound | attention to the conspecific (looking at the eyes) following mutual eye contact, compared with SAL [1] | frequency of fixations to the eyes, normalized by SAL [2] | frequency of fixations to faces, normalized by SAL ([2]; inverted U-shaped curve) | solicitation for social contact, such as grooming and proximity [3] | frequency of fixations to the eyes of a conspecific, normalized by SAL ([1]; OT 24 IU, NAL 1 mg, intranasal, P=0.004 OTNAL over SAL, P=0.069 over NAL, P=0.022 over OT, OT over SAL P=0.059 (marginal)) | physical contact between social partners [3] |
| --- | --- | --- | --- | --- | --- | --- |
| C=CCN1CC[C@]23c4c5ccc(O)c4O[C@H]2C(=O)CC[C@@]3(O)[C@H]1C5 [NAL, naloxone] | neither OT nor NAL administered alone had a significant effect | maximal effect again clearly occurred following the 1-mg dose | maximal effects clearly occurred following the 1-mg dose | increases solicitation for social contact | – | – |
| CC[C@H](C)[C@@H]1NC(=O)[C@H](Cc2ccc(O)cc2)NC(=O)[C@@H](N)CSSC[C@@H](C(=O)N2CCC[C@H]2C(=O)N[C@@H](CC(C)C)C(=O)NCC(N)=O)NC(=O)[C@H](CC(N)=O)NC(=O)[C@H](CCC(N)=O)NC1=O [OT, 1-({(4R,7S,10S,13S,16S,19R)-19-amino-7-(2-amino-2-oxoethyl)-10-(3-amino-3-oxopropyl)-16-(4-hydroxybenzyl)-13-[(1S)-1-methylpropyl]-6,9,12,15,18-pentaoxo-1,2-dithia-5,8,11,14,17-pentaazacycloicosan-4-yl}carbonyl)-L-prolyl-L-leucylglycinamide] | neither OT nor NAL administered alone had a significant effect | – | – | – | overall increased fixations to the eyes compared with SAL | – |
| CN1CC[C@]23c4c5ccc(O)c4O[C@H]2[C@@H](O)C=C[C@H]3[C@H]1C5 [morphine] | – | – | – | – | – | decrease physical contact between social partners |
